Test results as given in publication PMC7616682 (Journal of biological inorganic chemistry : JBIC : a …, 2024).
Values after ≈ are worked out from the molar mass of the structure shown. Like-named read-outs stand apart in the source and are kept apart here.

Legend:
[1] = system: Klebsiella pneumoniae ATCC 13883; assay: Rapid screen broth microdilution assay; assay type: cell-based; settings: rapid screen without replicates, 24 h, read-out: MIC K. pnuemoniae (Gram negative)
Method: (§1) Antibacterial activity assay
(§2) Rapid screen broth microdilution assay
(§3) 5 × 125 mL Erlenmeyer flasks, each filled with 12.5 mL Mueller Hinton broth II (MHBII), were inoculated with Klebsiella pneumoniae ATCC 13883, Acinetobacter baumanii ATCC 17978, Psuedomonas aeruginosa ATCC BAA-47, Staphylococcus aureus […]
(§4) with 12.5 mL BHI broth was inoculated with Enterococcus faecium ATCC 19434. The cultures were incubated at 37 °C with shaking at 180 rpm for 16 h. The suspensions were diluted 100-fold with the requisite broth (E. faecium: 4-fold) and the resultant suspensions incubated for a further 3 h at 37 °C with shaking. […]
(§5) of 0.8–1.2 after 3 h. Stock solutions of the title compounds were prepared in the requisite broth from 100 mM stocks in DMSO with the exceptions of carbenicillin, which was from a 100 mM stock in water and ciprofloxacin from a 10 mM stock in DMSO.
(§6) 6 × 96 well plates were primed with a concentration gradient of the analytes from 200 to 3.13 µM, carbenicillin from 200 to 3.13 µM and ciprofloxacin from 10 to 0.16 µM. The cells were diluted 100-fold to an OD600 of 0.01. All plates were then inoculated with 50 μL per well bacterial culture in the requisite broth to 100 μL per well. Plates were then incubated at 37 °C for 24 h before reading OD600 on a BMG Clariostar platereader. […]

[2] = system: Escherichia coli K12 ATCC 10798; assay: Rapid screen broth microdilution assay; assay type: cell-based; settings: rapid screen without replicates, 24 h, read-out: MIC E. coli (Gram negative)
Method: as §1, §2, §3, §4, §5, §6

[3] = system: Psuedomonas aeruginosa ATCC BAA-47; assay: Rapid screen broth microdilution assay; assay type: cell-based, Pseudomonas aeruginosa; settings: rapid screen without replicates, 24 h, read-out: MIC P. aeruginosa (Gram negative)
Method: as §1, §2, §3, §4, §5, §6

[4] = system: BEASB2, HaCat, RPE1, HCT116 and HeLa cell lines; assay: Cell viability, summary over all cell lines studied; assay type: cell-based, human; settings: Homo sapiens; summary of Table 3, 48 h; read-out: IC50 values, range over all cell lines studied
Method: (§7) To determine the relative viability, after incubation cells were fixed and stained with DAPI and the number of nuclei per well determined using a CeligoTM Image Cytometer (Figure S52 to S60). […] page 43: Cell viability studies Compound cytotoxicity was tested simultaneously on five representative cell lines […] All cells were cultured in DMEM Glutamax without pyruvate with 10% fetal bovine serum and 1% penicillin/streptomycin (Gibco). Cells were incubated with the compound for 24 or 48 h […] The tested concentration range for each compound was […] The required […] Greiner CELLSTAR® microplates) using the Echo 550 Acoustic Liquid Handler and wells were back-filled with DMSO when required to keep a final DMSO concentration […] Next, 50 μL of cell solution was added to the compound-containing wells using the Integra® […] Bulk dispenser. Cell solutions were prepared to get 5000 […] cells per well for hTERT RPE-1, and 5000 (24 h)/2500 (48 h) cells per well for BEAS- […] After incubation, cells were fixed with 4% PFA (Merck, […]), permeabilized with […] DAPI (Merck, 10236276001). Viable cells were counted using 377 nm excitation and 447 nm emission filters on the CeligoTM Image Cytometer. The number of nuclei per well was determined using the Direct Cell Count analysis from the CeligoPro Sofware […] All conditions were performed in triplicate. Staurosporine (Cambridge Bioscience, s7600) was used as a positive control and DMSO only as a negative control. The percentage of cell viability was normalized to the DMSO-only control and […] logistic curve with the scipy.optimize.curve_fit function. S43

[5] = system: HCT116 (colorectal cancer) cells; assay: Cell viability (DAPI nuclei count); assay type: cell-based, human
Method: as §7

[6] = system: BEAS2B (non-cancer lung) cells; assay: Cell viability (DAPI nuclei count); assay type: cell-based, human; settings: 48 h
Method: as §7

[7] = system: RPE1 (retinal pigment epithelial cells); assay: Cell viability (DAPI nuclei count); assay type: cell-based, human
Method: as §7

[8] = system: HeLa (cervical cancer) cells; assay: Cell viability (DAPI nuclei count); assay type: cell-based, human; settings: 48 h
Method: as §7

[9] = system: HaCat (non-cancer skin) cells; assay: Cell viability (DAPI nuclei count); assay type: cell-based, human; settings: 48 h
Method: as §7

streptavidin = streptavidin (Streptomyces avidinii, UniProt P22629); assay: Isothermal titration calorimetry (ITC) with streptavidin; assay type: binding; settings: 25 °C, 10 mM HEPES + 2% DMSO; for Kd: read-out: dissociation constant (Kd) to streptavidin
Method: Isothermal titration calorimetry
Streptavidin (20 µM in 10 mM HEPES plus 2% DMSO) was titrated stepwise with 2 uL injections of the compound (200 µM in 10 mM HEPES + 2% DMSO) at 25 °C, using a Malvern MicroCal PEAQ-ITC. Raw thermograms (top panels) and the binding isotherm from the integrated thermogram (bottom panels) were fit using the One Set of Sites model in the MicroCal PEAQ-ITC analysis software. Circles indicate the integrated heat, and the curve represents the best fit.
Figure S46: Isothermal titration calorimetry measurements of 5.
(§8) (1 picture or pasted object on this page, not shown here)

S. aureus NTCC 12973 = assay: MIC broth microdilution assay; assay type: cell-based, Staphylococcus aureus; settings: 24 h, read-out: MIC S. aureus (Gram positive)
Method: (§9) Antibacterial activity assay […]
(§10) MIC broth microdilution assay
(§11) 3 × 125 mL Erlenmeyer flasks, each filled with 12.5 mL MHBII, were inoculated with three different colonies of S. aureus NTCC 12973. 3 × 125 mL Erlenmeyer flasks, each filled with 12.5 mL BHI broth, were inoculated with three different colonies of E. faecium ATCC 19434. The cultures were incubated at 37 °C with shaking at 180 rpm for 16 h.
(§12) OD600 of ~2.5. The suspensions of S. aureus cultures were diluted 100-fold with MHBII while the E. faecium cultures were diluted 4-fold. The resultant suspensions were incubated for a further 3 h at 37 °C with shaking. […]
(§13) after 3 h. Stock solutions of the title compounds were prepared in the requisite broth from 100 mM stocks in DMSO with the exception of carbenicillin, which was from a 100 mM stock in water and vancomycin from a 10 mM stock in DMSO. 15 × 96 well plates were primed with concentration gradients of the analytes and carbenicillin as shown in Figure S60 for S. aureus. 15 × 96 well plates were primed with the concentration […]
(§14) μL per well of the relevant bacterial culture in the requisite broth to 100 μL per well.
Plates were then incubated at 37 °C for 24 h before reading OD600 on a BMG Clariostar […]
Figure S50: Dose response profiles of the title compounds against S. aureus.
as §8

[10] = LogP by shake-flask method (n-octanol/phosphate buffer)
Method: using the "shake-flask" method.[6],[7] In short, phosphate buffer (50 mM, pH 7.4) was saturated with n-octanol by shaking a 1:1 mixture of both solution on a laboratory shaker for 72 h, after which the phases were separated. Stock solutions of each complex were then prepared in dimethylsulfoxide at a concentration of 10 mM. […]
(§15) solution with a concentration of 100 µM. From this solution, 1000 µL were transferred into an Eppendorf tube and mixed with 1000 µL of n-octanol. After shaking for 15 min and centrifugation (5 min, 6000 rpm), the two phases were carefully separated, and the contact layer discarded. Then, the absorbance of each phase was recorded with an Agilent 8453 UV/Vis spectrometer.
as §15, with “2 mL solution with” for “solution with”, “1000 µL phosphate buffer. After shaking” for “1000 µL of n-octanol. After shaking”, “rpm), the phases were” for “rpm), the two phases were”

E. faecium ATCC 19434 = assay: MIC broth microdilution assay; assay type: cell-based, Enterococcus faecium; settings: 24 h, read-out: MIC E. faecium (Gram positive)
Method: as §9, §10, §11, §12, §13, §14

[11] = system: Acinetobacter baumanii ATCC 17978; assay: Rapid screen broth microdilution assay; assay type: cell-based, Acinetobacter baumannii; settings: rapid screen without replicates, 24 h, read-out: MIC A. baumannii (Gram negative)
Method: as §1, §2, §3, §4, §5, §6

avidin [12] = target: T1, avidin (Gallus gallus, UniProt P02701); assay: HABA/avidin assay; assay type: binding; settings: titration of HABA/avidin mixture, absorbance at 500 nm
T1 construct: purchased SIGMA-ALDRICH A9275
Method: properties towards avidin using the HABA assay.[8] A mixture of avidin (6.8 μM, SIGMA-ALDRICH: A9275) and 4'-hydroxyazobenzene-2-carboxylic acid (HABA, 0.3 mM, SIGMA-ALDRICH: H5126) was dissolved in 50 mM sodium phosphate buffer (20 mL, pH 7.4) and allowed to equilibrate for 24 h at 4 °C. Stock solutions of each compound were prepared in dimethyl sulfoxide at a concentration of 1.1 mM. The […]
to the prepared avidin/HABA mixture (1 mL) at room temperature at 5–10 min intervals […]
absorbance then recorded with an Agilent 8453 UV/Vis spectrometer. The formation of the adduct was indicated by a decrease in the absorbance at 500 nm due to the displacement of HABA from the avidin. By plotting -ΔA500 nm vs. the molar concentration ratio c(compound):c(avidin), the binding stoichiometry of the compound to avidin was determined.

avidin [13] = target: T1, avidin; settings: cited from earlier work
[14] = shake-flask method, n-octanol/phosphate buffer 50 mM pH 7.4

streptavidin, sequence (P22629 25-183, species assumed): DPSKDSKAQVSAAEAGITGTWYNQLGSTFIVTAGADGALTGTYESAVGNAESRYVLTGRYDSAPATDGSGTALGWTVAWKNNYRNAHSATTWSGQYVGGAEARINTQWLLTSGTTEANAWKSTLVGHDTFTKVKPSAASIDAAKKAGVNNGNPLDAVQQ
T1 sequence (P02701 25-152): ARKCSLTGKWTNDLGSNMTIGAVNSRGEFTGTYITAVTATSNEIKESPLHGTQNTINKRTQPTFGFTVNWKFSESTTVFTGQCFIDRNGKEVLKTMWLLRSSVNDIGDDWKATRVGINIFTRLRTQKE

Compound	Kd (streptavidin) [µM]	LogP [10, 14]	MIC [1] [µM]	MIC [2] [µM]	MIC [3] [µM]	IC50 ([5]; 48 h) [µM]	IC50 ([7]; 48 h) [µM]	IC50 [8] [µM]	IC50 [9] [µM]	MIC (S. aureus NTCC 12973; three colonies) [µM]	MIC (E. faecium ATCC 19434; three colonies) [µM]	MIC [11] [µM]	further results
O=C(C#Cc1ccccc1)CCCC[C@@H]1SC[C@@H]2NC(=O)N[C@@H]21 (stereo in doubt) [Compound 5, 7-[(3aS,4S,6aR)-2-oxohexahydro-1H-thieno-[3,4-d]imidazol-4-yl]-1-phenyl-1-heptyn-3-one]	< 0.001	highly lipophilic^a	–	–	–	–	–	–	–	–	–	–	MIC ([1]; Klebsiella pneumoniae, ATCC13883): > 200 µM; MIC ([2]; Escherichia coli, ATCC10798): > 200 µM; MIC ([3]; Pseudomonas aeruginosa, ATCCBAA47): > 200 µM; IC50 [4]: 2 to 4 µM; IC50 ([5]; Homo sapiens, HCT-116, 48 h): 4 µM; IC50 ([6]; Homo sapiens, BEAS-2B): 3.6 µM; IC50 ([7]; Homo sapiens, RPE-1, 48 h): 2.4 µM; IC50 ([8]; Homo sapiens, HeLa): 3.3 µM; IC50 ([9]; Homo sapiens, HaCaT): 3.3 µM; MIC (S. aureus NTCC 12973; Staphylococcus aureus, NTCC12973, three colonies): > 200 µM; MIC (E. faecium ATCC 19434; Enterococcus faecium, ATCC19434, three colonies): 200 µM (≈ 65.7 µg/mL); MIC ([11]; Acinetobacter baumannii, ATCC17978): > 200 µM
COC(=O)c1n[n]([Pt+])nc1C(=O)OC.F[P-](F)(F)(F)(F)F.c1ccc(-c2cccc(-c3ccccn3)n2)nc1 [Compound 15]	–	–	>200	>200	>200	6	4.9	15.9	15.4	>200	>200	>200	avidin binding in HABA assay (result in words) (avidin [12]): non-specific protein binding; dissociation constant (Kd) to streptavidin (streptavidin): did not bind to streptavidin; LogP ([10]; pH 7.4): -1.80
F[P-](F)(F)(F)(F)F.O=C1N[C@H]2[C@H](CS[C@H]2CCCCC(=O)c2n[n]([Pt+][c]3cccc(-c4cccc(-c5ccccn5)n4)n3)nc2-c2ccccc2)N1 [Compound 16, [Pt(triazolatoC6H5,biotin)(terpy)]PF6]	0.13	-0.78	>200	>200	>200	6.8	5.2	13.3	14.1	>200	>200	>200	IC50 [6]: 8.3 µM
O=C(O)c1ccccc1N=Nc1ccc(O)cc1 [HABA, 4'-hydroxyazobenzene-2-carboxylic acid]	–	–	–	–	–	–	–	–	–	–	–	–	Kd (avidin [13]): 6 µM
